Laboratory results: US20170355708A1, “POTASSIUM CHANNEL MODULATORS” (Cadent Therapeutics, Inc., priority 2016, published 2017)

target: T1, hSK2 channels (Homo sapiens, UniProt P0DP23+Q9H2S1); assay: Whole-cell patch-clamp recording of SK2 channel current (SC100); format: cell-based; settings: Stimulating Concentration required for increasing the baseline current by 100%; HEK293 cells expressing hSK2; Table 3
T1 construct: expressed in transfected cells; host or cells: HEK293
Method: The biological activity of certain compounds were determined as follows. The ionic current through small-conductance Ca^2+-activated K^+ channels (SK channels, subtype 2) is recorded using the whole-cell configuration of the patch-clamp technique in a classic patch-clamp set-up using HEK293 tissue culture cells expressing hSK2 channels as described in Kasumu et. al., Chemistry & Biology 19, 1340-1353, Oct. 26, 2012.
The SC100 value determined is defined as the Stimulating Concentration required for increasing the baseline current by 100%.

**Q.** How did the “SC100 uM” value turn out when `CC(O)c1ccn(-c2nc(Nc3ccc(F)cc3)cc(N3CC4(COC4)C3)n2)n1` (stereo not shown) [Compound 153, 1-(1-(4-((4-fluorophenyl)amino)-6-(2-oxa-6-azaspiro[3.3]heptan-6-yl)pyrimidin-2-yl)-1H-pyrazol-3-yl)ethan-1-ol] was run?
**A.** The value was “+ (+ means >1 uM)”.

**Q.** `CC(=O)NCc1cc(Nc2ccc(F)cc2)nc(-n2cc(C)c(C(C)O)n2)c1` (stereo not shown) [Compound 167, N-((2-((4-fluorophenyl)amino)-6-(3-(1-hydroxyethyl)-4-methyl-1H-pyrazol-1-yl)pyridin-4-yl)methyl)acetamide] was tested. Which “SC100 uM” value did it give?
**A.** The value was “++ (++ means 200 nM-1000 nM)”.

**Q.** How did the “SC100 uM” value turn out when `Cc1cc(C)n(-c2nc(Nc3ccc(F)c(F)c3)cc(N3CCO[C@H](CO)C3)n2)n1` (single isomer, unassigned) [Compound 122, (−)-(4-(6-((3,4-difluorophenyl)amino)-2-(3,5-dimethyl-1H-pyrazol-1-yl)pyrimidin-4-yl)morpholin-2-yl)methanol] was run?
**A.** Its value is “++ (++ means 200 nM-1000 nM)”.

**Q.** Which “SC100 uM” value does the source give for `CC(=O)NCc1cc(Nc2ccc(F)cc2)nc(-n2ccc(CF)n2)c1` [Compound 159, N-((2-(3-(fluoromethyl)-1H-pyrazol-1-yl)-6-((4-fluorophenyl)amino)pyridin-4-yl)methyl)acetamide] here?
**A.** Its value is “+++ (+++ means <200 nM)”.

**Q.** For `CC(C)(O)c1ccn(-c2nc(Nc3ccc(Cl)cc3)cc(N3CC4(COC4)C3)n2)n1` [Compound 147, 2-(1-(4-((4-chlorophenyl)amino)-6-(2-oxa-6-azaspiro [3.3]heptan-6-yl)pyrimidin-2-yl)-1H-pyrazol-3-yl)propan-2-ol], which “SC100 uM” value is on record?
**A.** The value was “++ (++ means 200 nM-1000 nM)”.

**Q.** With `Cc1cc(C)n(-c2cc(NC(C)C(N)=O)nc(Nc3ccc(F)c(F)c3)n2)n1` (stereo not shown) [Compound 113, 2-((2-((3,4-difluorophenyl)amino)-6-(3,5-dimethyl-1H-pyrazol-1-yl)pyrimidin-4-yl)amino)propanamide] as the compound, how does the “SC100 uM” value read?
**A.** Its value is “++ (++ means 200 nM-1000 nM)”.

**Q.** `OCc1ccn(-c2nc(Nc3ccc(Cl)cc3)cc(N3CCOCC3)n2)n1` [Compound 149, (1-(4-((4-chlorophenyl)amino)-6-morpholinopyrimidin-2-yl)-1H-pyrazol-3-yl)methanol] was tested. Which “SC100 uM” value did it give?
**A.** Its value is “++ (++ means 200 nM-1000 nM)”.

**Q.** Which “SC100 uM” value does the source give for `CC(C)(O)c1ccn(-c2nc(Nc3ccc(F)cc3)cc(N3CC4(COC4)C3)n2)n1` [Compound 155, 2-(1-(4-((4-fluorophenyl)amino)-6-(2-oxa-6-azaspiro[3.3]heptan-6-yl)pyrimidin-2-yl)-1H-pyrazol-3-yl)propan-2-ol] here?
**A.** The value was “+ (+ means >1 uM)”.

**Q.** Which “SC100 uM” value does the source give for `Cc1cc(C)n(-c2cc(N3CCO[C@H](C(N)=O)C3)nc(Nc3ccc(F)c(F)c3)n2)n1` (single isomer, unassigned) [Compound 131, (+)-4-(2-((3,4-difluorophenyl)amino)-6-(3,5-dimethyl-1H-pyrazol-1-yl)pyrimidin-4-yl)morpholine-2-carboxamide] here?
**A.** The value was “+++ (+++ means <200 nM)”.

**Q.** With `FC(F)c1ccn(-c2nc(Nc3ccc(Cl)cc3)cc(N3CCOCC3)n2)n1` [Compound 154, N-(4-chlorophenyl)-2-(3-(difluoromethyl)-1H-pyrazol-1-yl)-6-morpholinopyrimidin-4-amine] as the compound, how does the “SC100 uM” value read?
**A.** Its value is “++ (++ means 200 nM-1000 nM)”.

**Q.** How did the “SC100 uM” value turn out when `Cc1cc(C)n(-c2cc(N3CCNC(C(N)=O)C3)nc(Nc3ccc(F)cc3F)n2)n1` (stereo not shown) [Compound 110, 4-(2-((2,4-difluorophenyl)amino)-6-(3,5-dimethyl-1H-pyrazol-1-yl)pyrimidin-4-yl)piperazine-2-carboxamide] was run?
**A.** The value was “++ (++ means 200 nM-1000 nM)”.

**Q.** How did the “SC100 uM” value turn out when `CC(=O)NCc1cc(Nc2ccc(F)cc2)nc(-n2cc(C)c(CO)n2)c1` [Compound 166, N-((2-((4-fluorophenyl)amino)-6-(3-(hydroxymethyl)-4-methyl-1H-pyrazol-1-yl)pyridin-4-yl)methyl)acetamide] was run?
**A.** Its value is “+ (+ means >1 uM)”.

**Q.** For `CC(O)c1ccn(-c2nc(Nc3ccc(Cl)cc3)cc(N3CC4(COC4)C3)n2)n1` (stereo not shown) [Compound 150, 1-(1-(4-((4-chlorophenyl)amino)-6-(2-oxa-6-azaspiro[3.3]heptan-6-yl)pyrimidin-2-yl)-1H-pyrazol-3-yl)ethan-1-ol], which “SC100 uM” value is on record?
**A.** Its value is “++ (++ means 200 nM-1000 nM)”.

**Q.** Which “SC100 uM” value does the source give for `Cc1cc(C)n(-c2nc(Nc3ccc(Cl)cc3)nc3c2ncn3CCN)n1` [Compound 133, 9-(2-aminoethyl)-N-(4-chlorophenyl)-6-(3,5-dimethyl-1H-pyrazol-1-yl)-9H-purin-2-amine] here?
**A.** The value was “+ (+ means >1 uM)”.

**Q.** For `Cc1cc(C)n(-c2nc(Nc3ccc(F)c(F)c3)cc(NC3C4CN(Cc5ccccc5)CC43)n2)n1` (stereo not shown) [Compound 134, N4-(3-benzyl-3-azabicyclo[3.1.0]hexan-6-yl)-N6-(3,4-difluorophenyl)-2-(3,5-dimethyl-1H-pyrazol-1-yl)pyrimidine-4,6-diamine], which “SC100 uM” value is on record?
**A.** The value was “++ (++ means 200 nM-1000 nM)”.

**Q.** How did the “SC100 uM” value turn out when `CC(=O)NCc1cc(Nc2ccc(F)cc2)nc(-n2cc(C)c(C(F)F)n2)c1` [Compound 168, N-((2-(3-(difluoromethyl)-4-methyl-1H-pyrazol-1-yl)-6-((4-fluorophenyl)amino)pyridin-4-yl)methyl)acetamide] was run?
**A.** Its value is “+++ (+++ means <200 nM)”.

**Q.** For `CC(=O)N1CCN(c2cc(-n3nc(C)cc3C)nc(Nc3ccc(F)cc3)n2)CC1` [Compound 103, 1-(4-(6-(3,5-dimethyl-1H-pyrazol-1-yl)-2-((4-fluorophenyl)amino)pyrimidin-4-yl)piperazin-1-yl)ethan-1-one], which “SC100 uM” value is on record?
**A.** Its value is “+++ (+++ means <200 nM)”.

**Q.** For `FCc1ccn(-c2nc(Nc3ccc(Cl)cc3)cc(N3CCOCC3)n2)n1` [Compound 151, N-(4-chlorophenyl)-2-(3-(fluoromethyl)-1H-pyrazol-1-yl)-6-morpholinopyrimidin-4-amine], which “SC100 uM” value is on record?
**A.** Its value is “++ (++ means 200 nM-1000 nM)”.

**Q.** How did the “SC100 uM” value turn out when `Cc1cc(C)n(-c2nc(Nc3ccc(F)c(F)c3)cc(N3CCOC(C(N)=O)C3)n2)n1` (stereo not shown) [Compound 127, 4-(6-((3,4-difluorophenyl)amino)-2-(3,5-dimethyl-1H-pyrazol-1-yl)pyrimidin-4-yl)morpholine-2-carboxamide] was run?
**A.** Its value is “+ (+ means >1 uM)”.

**Q.** Which “SC100 uM” value does the source give for `Cc1cc(C)n(-c2nc(Nc3ccc(F)c(F)c3)cc(N3CCOC(CO)C3)n2)n1` (stereo not shown) [Compound 117, (4-(6-((3,4-difluorophenyl)amino)-2-(3,5-dimethyl-1H-pyrazol-1-yl)pyrimidin-4-yl)morpholin-2-yl)methanol] here?
**A.** Its value is “+++ (+++ means <200 nM)”.

same assay, conditions: Stimulating Concentration required for increasing the baseline current by 100%; HEK293 cells expressing hSK2; Table 4

**Q.** How did the “SC100 (μM)” value turn out when `Cc1cc(Nc2ccc(F)cc2)nc(-c2ccccn2)n1` [IN11121-037-P1, N-(4-fluorophenyl)-6-methyl-2-(pyridin-2-yl)pyrimidin-4-amine] was run?
**A.** The value was “+ (+ means >1 uM)”.

**Q.** Which “SC100 (μM)” value does the source give for `Cc1csc(-c2nc(Nc3cccc(C(F)(F)F)c3)cc(C(C)O)n2)n1` (stereo not shown) [IN10880-092-P1] here?
**A.** Its value is “++ (++ means 200 nM-1000 nM)”.

**Q.** How did the “SC100 (μM)” value turn out when `Cc1cccc(-c2nc(Nc3ccc(F)cc3)cc(N3CCOCC3)n2)n1` [NSSy6907, N-(4-fluorophenyl)-2-(6-methylpyridin-2-yl)-6-morpholinopyrimidin-4-amine] was run?
**A.** The value was “++ (++ means 200 nM-1000 nM)”.

**Q.** For `Cc1cc(Nc2ccc(F)cc2)nc(-c2ccc(C)[nH]2)n1` [IN11196-053-P1, N-(4-fluorophenyl)-6-methyl-2-(5-methyl-1H-pyrrol-2-yl)pyrimidin-4-amine], which “SC100 (μM)” value is on record?
**A.** Its value is “+ (+ means >1 uM)”.

**Q.** For `COC(C)c1cc(Nc2ccc(F)cc2F)nc(-c2nc(C)cs2)n1` (stereo not shown) [IN11059-067-P1, N-(2,4-difluorophenyl)-6-(1-methoxyethyl)-2-(4-methylthiazol-2-yl) pyrimidin-4-amine], which “SC100 (μM)” value is on record?
**A.** The value was “+ (+ means >1 uM)”.
